Source: US11628202B2, “Methods of reducing the need for surgery in patients suffering from benign prostatic hyperplasia” (Nymox Corporation, priority 2015, dated 2023)

System: patients with moderate to severe symptomatic benign prostatic hyperplasia (BPH)
Test: Prospective assessment of need for subsequent invasive surgical intervention in BPH patients after NX-1207 injection
Type: in vivo, human
Protocol: 645 patients (Group #1) with moderate to severe symptomatic benign prostatic hyperplasia (BPH) were prospectively randomly assigned to blinded treatment with a single therapeutic injection of NX-1207 or placebo (saline vehicle alone), and their clinical BPH signs and symptoms were assessed at weekly, monthly, 3-monthly or longer intervals, for durations of a few months to 5.5 years. None of these patients had received any prior invasive surgical procedures to treat their BPH condition. A prospective assessment was undertaken of all available subjects>=2 years after baseline to determine the usefulness of NX-1207 treatment for the prevention or the delay of the need for surgical procedures (i.e., subsequent invasive surgical intervention) to treat the patient's BPH condition. Patients who received placebo and no drug treatment progressed to invasive surgical procedures within 2 years of baseline in 7.65% of patients.
352 patients (Group #2) who were randomized and blindly treated with NX-1207 or placebo at the same time as Group #1 in Example 1, in addition to the initial treatment, were given a second treatment injection of NX-1207 at intervals of >=1 year after the initial randomization. None of these patients had received any prior invasive surgical procedures to treat their BPH condition. A prospective assessment was undertaken of all available subjects>=2 years after baseline to determine the usefulness of NX-1207 treatment for the prevention or the delay of the need for invasive surgical intervention to treat the patient's BPH condition.
Patients in Examples 1 and 2 were characterized as to whether they had previous treatment failures with conventional oral medications (i.e. “treatment failure”) vs whether they had not received any previous conventional oral medications for their BPH condition (i.e., “treatment naïve”). A prospective assessment was undertaken of all available subjects>=2 years after baseline to determine the usefulness of NX-1207 treatment for the prevention or the delay of the need for subsequent invasive surgical intervention to treat the patient's BPH condition.
In the above examples, the amount of NX-1207 administered was 2.5 mg.

IDQQVLSRIKLEIKRCL [NX-1207, NTP peptide injected once or twice (2.5 mg) in BPH patients]
improvement in reducing the need for subsequent invasive surgical intervention, compared to patients who received a single injection (administered twice): ~69% | improvement in reducing the need for subsequent invasive surgical intervention, compared to patients who received the placebo (administered twice): ~80% | need for subsequent invasive surgical intervention (previous treatment failure subjects, assessed >=2 years after baseline, treatment failure placebo 10.4%): 6.1% | rate of need for invasive surgical procedures (second injection >=1 year after initial randomization, assessed >=2 years after baseline, p<0.001 vs placebo 7.65%, p<0.01 vs single injection 5.1%): 1.6% | reduced rate of invasive surgical procedures within 2 years, compared to placebo (single therapeutic injection, 2.5 mg): 33.3% | patients progressed to invasive surgical procedures within 2 years of baseline (single therapeutic injection, 2.5 mg, BPH patients, no prior invasive surgery, placebo 7.65%): 5.1% | improvement in reducing the need for subsequent invasive surgical intervention, compared to patients who received the placebo (treatment naive patients): ~88% | improvement in reducing the need for subsequent invasive surgical intervention, compared to treatment failure patients who received the NTP peptide (treatment naive patients): ~85% | improvement in reducing the need for subsequent invasive surgical intervention, compared to treatment failure patients who received the placebo (treatment naive patients): ~91% | need for invasive surgical procedures (treatment naïve patients, assessed >=2 years after baseline, placebo controls 7.5%, p<0.01): 0.9%
